Source: PubChem BioAssay AID248 (DTP/NCI, 2004)
Inconclusive results and toxic doses are left out. Cut-off read from the data, not from the text of the source: active = T/C of 150% or more; inactive = T/C below 125%. Peptide text beside a SMILES is read from it. * marks the point of attachment. Cbz = O=C(OCc1ccccc1)*

System: L1210 leukemia ip in BDF1 mice, survival T/C
Experiment: NCI In Vivo Anticancer Drug Screen. Data for tumor model L1210 Leukemia (intraperitoneal) in B6D2F1 (BDF1) mice
Conditions: endpoint: mean survival time, higher = longer survival
Summary of the method: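 Tumor cells were implanted, animals were treated, and survival was followed. The result divides the treated measurement by the vehicle-control measurement.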

[1] = dose: 50.0 mg/kg/injection, schedule: Q04DX003 (ip), vehicle: Klucel (hydroxypropylcellulose) (HPC)
[2] = dose: 100.0 mg/kg/injection, schedule: Q04DX003 (ip), vehicle: Klucel (hydroxypropylcellulose) (HPC)
[3] = dose: 200.0 mg/kg/injection, schedule: Q04DX003 (ip), vehicle: Klucel (hydroxypropylcellulose) (HPC)
[4] = dose: 100.0 mg/kg/injection, schedule: Q01DX009 (ip), vehicle: Klucel (hydroxypropylcellulose) (HPC)
[5] = dose: 200.0 mg/kg/injection, schedule: Q01DX009 (ip), vehicle: Klucel (hydroxypropylcellulose) (HPC)
[6] = dose: 400.0 mg/kg/injection, schedule: Q01DX009 (ip), vehicle: Klucel (hydroxypropylcellulose) (HPC)
[7] = dose: 100.0 mg/kg/injection, schedule: Q01DX001 (ip), vehicle: carboxymethylcellulose (CMC)
[8] = dose: 200.0 mg/kg/injection, schedule: Q01DX001 (ip), vehicle: carboxymethylcellulose (CMC)
[9] = dose: 400.0 mg/kg/injection, schedule: Q01DX001 (ip), vehicle: carboxymethylcellulose (CMC)
[10] = dose: 100.0 mg/kg/injection, schedule: Q01DX001 (ip), vehicle: saline with Tween-80
[11] = dose: 400.0 mg/kg/injection, schedule: Q04DX003 (ip), vehicle: Klucel (hydroxypropylcellulose) (HPC)
[12] = dose: 50.0 mg/kg/injection, schedule: Q01DX001 (ip), vehicle: saline
[13] = dose: 100.0 mg/kg/injection, schedule: Q01DX001 (ip), vehicle: saline
[14] = dose: 200.0 mg/kg/injection, schedule: Q01DX001 (ip), vehicle: saline
[15] = dose: 100.0 mg/kg/injection, schedule: Q04DX003 (ip), vehicle: saline
[16] = dose: 200.0 mg/kg/injection, schedule: Q04DX003 (ip), vehicle: saline
[17] = dose: 100.0 mg/kg/injection, schedule: Q01DX009 (ip), vehicle: saline with Tween-80
[18] = dose: 200.0 mg/kg/injection, schedule: Q01DX009 (ip), vehicle: saline with Tween-80
[19] = dose: 400.0 mg/kg/injection, schedule: Q01DX001 (ip), vehicle: saline

Measured: T/C

CC1(C)N=C(N)N=C(N)N1c1ccc(CCCCc2ccc(Cl)c(S(=O)(=O)F)c2)c(Cl)c1
inactive: dose: 12.5 mg/kg/injection, schedule: Q01DX009 (ip), vehicle: saline sonified 93 % of control | dose: 12.5 mg/kg/injection, schedule: Q04DX003 (ip), vehicle: saline sonified 96 % of control | dose: 25.0 mg/kg/injection, schedule: Q01DX009 (ip), vehicle: saline sonified 94 % of control | dose: 25.0 mg/kg/injection, schedule: Q04DX003 (ip), vehicle: saline sonified 93 % of control | dose: 50.0 mg/kg/injection, schedule: Q01DX009 (ip), vehicle: saline sonified 98 % of control | dose: 50.0 mg/kg/injection, schedule: Q04DX003 (ip), vehicle: saline sonified 93 % of control

COc1ccc(CCC(=O)c2ccccc2)cc1
inactive: [1] 98 % of control | [2] 104 % of control | [3] 107 % of control

Cc1cccc2cc3ccc4ccccc4c3cc12
inactive: [4] 102 % of control | dose: 100.0 mg/kg/injection, schedule: Q04DX003 (ip), vehicle: other 101 % of control | [5] 95 % of control | dose: 200.0 mg/kg/injection, schedule: Q04DX003 (ip), vehicle: other 101 % of control | [6] 101 % of control | dose: 400.0 mg/kg/injection, schedule: Q04DX003 (ip), vehicle: other 95 % of control

C=C(Br)S(=O)(=O)CC
inactive: dose: 6.25 mg/kg/injection, schedule: Q04DX002 (ip), vehicle: saline 101 % of control | dose: 12.5 mg/kg/injection, schedule: Q04DX002 (ip), vehicle: saline 90 % of control | dose: 25.0 mg/kg/injection, schedule: Q04DX002 (ip), vehicle: Klucel (hydroxypropylcellulose) (HPC) 101 % of control | dose: 25.0 mg/kg/injection, schedule: Q04DX002 (ip), vehicle: saline 111 % of control

COC(=O)CCc1nc(N)nc(N)n1
inactive: dose: 50.0 mg/kg/injection, schedule: Q01DX001 (ip), vehicle: carboxymethylcellulose (CMC) 98 % of control | [7] 90 % of control | [8] 101 % of control | [9] 90 % of control

CCN(CC)Cc1cc(O)c(CN(CC)CC)cc1O
inactive: dose: 25.0 mg/kg/injection, schedule: Q01DX001 (ip), vehicle: saline with Tween-80 93 % of control | dose: 50.0 mg/kg/injection, schedule: Q01DX001 (ip), vehicle: saline with Tween-80 103 % of control | [10] 96 % of control

COc1cc2c(cc1OC)[C@@H]1Cc3ccc(OC)c(OC)c3CN1CC2
inactive: [7] 102 % of control | [8] 110 % of control | [9] 94 % of control

COc1cccc(NC(=S)NCCO)c1
inactive: [2] 103 % of control | [3] 110 % of control | [11] 110 % of control

CCCCn1cnc2c(SC)ncnc21
inactive: [12] 101 % of control | [13] 107 % of control | [14] 103 % of control

CC(C)C(C)(O)C(N)=O (stereo not drawn)
inactive: [13] 106 % of control | [14] 101 % of control

O=C1OC2C3c4ccccc4C(c4c3ccc3ccccc43)C2O1 (stereo not drawn)
inactive: [2] 103 % of control | [3] 95 % of control | [11] 95 % of control

O/N=C(\c1ccccc1)C1C(/C(=N/O)c2ccccc2)C1c1ccccc1 (stereo not drawn)
inactive: dose: 100.0 mg/kg/injection, schedule: Q04DX002 (ip), vehicle: saline with Tween-80 88 % of control | dose: 400.0 mg/kg/injection, schedule: Q04DX002 (ip), vehicle: saline with Tween-80 88 % of control

NC(=O)NC=O
inactive: dose: 50.0 mg/kg/injection, schedule: Q01DX009 (ip), vehicle: Klucel (hydroxypropylcellulose) (HPC) 96 % of control | [1] 101 % of control | [4] 102 % of control | [2] 105 % of control | [5] 96 % of control | [3] 115 % of control

O=C(O)c1c(Br)c(Br)c(Br)c(Br)c1C(=O)Nc1ccc(Cl)c(Cl)c1
inactive: [4] 95 % of control | [5] 98 % of control | [6] 120 % of control

CCC(C)N (stereo not drawn)
inactive: [15] 95 % of control | [16] 95 % of control

COc1ccc(Sc2ccccc2N)c([N+](=O)[O-])c1
inactive: [2] 100 % of control | [3] 97 % of control | [11] 92 % of control

NC(=O)CNC(=O)CNC(=O)OCc1ccccc1 (Cbz-Gly-Gly-NH2)
inactive: [17] 100 % of control | [18] 92 % of control | dose: 400.0 mg/kg/injection, schedule: Q01DX009 (ip), vehicle: saline with Tween-80 92 % of control

N=C(N)SCc1ccc(CSC(=N)N)cc1
inactive: dose: 12.5 mg/kg/injection, schedule: Q04DX002 (ip), vehicle: saline with Tween-80 102 % of control | dose: 25.0 mg/kg/injection, schedule: Q01DX009 (ip), vehicle: saline 91 % of control | dose: 25.0 mg/kg/injection, schedule: Q04DX002 (ip), vehicle: saline with Tween-80 94 % of control | dose: 25.0 mg/kg/injection, schedule: Q04DX003 (ip), vehicle: saline 103 % of control | dose: 50.0 mg/kg/injection, schedule: Q01DX009 (ip), vehicle: saline 97 % of control | dose: 50.0 mg/kg/injection, schedule: Q04DX003 (ip), vehicle: saline 102 % of control | [15] 105 % of control

Cc1ccc(C(Br)C2=CC(C)(C)c3ccccc3C2=O)cc1 (stereo not drawn)
inactive: [4] 106 % of control | [2] 106 % of control | [5] 101 % of control | [3] 104 % of control | [6] 98 % of control | [11] 104 % of control

O=S(=O)([O-])CC[n+]1ccc(-c2ccccc2)o1
inactive: [7] 94 % of control | [15] 110 % of control | [8] 97 % of control | [16] 103 % of control | [9] 97 % of control | dose: 400.0 mg/kg/injection, schedule: Q04DX003 (ip), vehicle: saline 118 % of control

COC(=O)c1[nH]nc(-c2ccccc2)c1N
inactive: dose: 100.0 mg/kg/injection, schedule: Q04DX003 (ip), vehicle: saline with Tween-80 101 % of control | dose: 200.0 mg/kg/injection, schedule: Q04DX003 (ip), vehicle: saline with Tween-80 93 % of control | dose: 400.0 mg/kg/injection, schedule: Q04DX003 (ip), vehicle: saline with Tween-80 90 % of control

c1cc[c]([Sn]([c]2ccccc2)([c]2ccccc2)[n]2cnc3cncnc32)cc1
inactive: dose: 5.0 mg/kg/injection, schedule: Q01DX001 (ip), vehicle: other 111 % of control | dose: 10.0 mg/kg/injection, schedule: Q01DX001 (ip), vehicle: other 100 % of control

OC1CCCC(c2ccccc2)C1 (stereo not drawn)
inactive: [4] 97 % of control | [5] 97 % of control | [6] 95 % of control

O=[N+]([O-])c1ncc[nH]1
inactive: [12] 96 % of control | [13] 98 % of control | [14] 102 % of control

COC(=O)NCCOS(C)(=O)=O
inactive: [13] 91 % of control | [14] 91 % of control | [19] 88 % of control

Cc1ccccc1OC(=O)Nc1ccc(C(=O)O)c(O)c1
inactive: [10] 93 % of control | [17] 94 % of control | dose: 200.0 mg/kg/injection, schedule: Q01DX001 (ip), vehicle: saline with Tween-80 96 % of control | [18] 97 % of control | dose: 400.0 mg/kg/injection, schedule: Q01DX001 (ip), vehicle: saline with Tween-80 93 % of control

Cc1ccc(S(=O)(=O)NC(=O)N(C)c2cc(N3CCCC3)ccn2)cc1
inactive: [13] 102 % of control | [14] 96 % of control | [19] 100 % of control

O=S(=O)(OCCCl)OCCCl
inactive: dose: 25.0 mg/kg/injection, schedule: Q01DX010 (ip), vehicle: olive oil, sesame oil, peanut oil 100 % of control | dose: 37.5 mg/kg/injection, schedule: Q01DX010 (ip), vehicle: olive oil, sesame oil, peanut oil 102 % of control | dose: 50.0 mg/kg/injection, schedule: Q01DX010 (ip), vehicle: olive oil, sesame oil, peanut oil 97 % of control
